pIC50: −log10 of the molar value.
Assays:
FYN = FYN (Homo sapiens, UniProt P06241); test: Kinase inhibition profile, non-related TK; type: biochemical; settings: ATP concentration of 1 nM
[1] = tested on: rat model of oxygen-induced retinopathy; test: Preretinal neovascularization, rat OIR model, intravitreal injection; type: in vivo, Sprague-Dawley rats; settings: for % Inhibition (vs. vehicle-injected eye) / Median NV / NV Range: 5 μl intravitreal; for % Inhibition (vs. vehicle-injected eye): preretinal NV; for Median NV / NV Range: NV clockhour score
Excerpt: METHODS: Pregnant Sprague-Dawley rats were received at 14 days gestation and subsequently gave birth on Day 22±1 of gestation. Immediately following parturition, pups were pooled and randomized into separate litters (n=17 pups/litter), placed into separate shoebox cages inside oxygen delivery chamber, and subjected to an oxygen-exposure profile from Day 0-14 postpartum. Litters were then placed into room air from Day 14/0 through Day 14/6 (days 14-20 postpartum). Additionally on Day 14/0, each pup was randomly assigned as an oxygen-exposed control or into various treatment groups. […] At Day 14/6 (20 days postpartum), all animals in both studies were euthanized.
Immediately following euthanasia, retinas from all rat pups were harvested, fixed in 10% neutral buffered formalin for 24 hours, subjected to ADPase staining, and fixed onto slides as whole mounts. Digital images were acquired from each retinal flat mount that was adequately prepared. Computerized image analysis was used to obtain a NV clockhour score from each readable sample. Each clockhour out of 12 total per retina was assessed for the presence or absence of preretinal NV. Statistical comparisons using median scores for NV clockhours from each treatment group were utilized in nonparametric analyses. Each noninjected pup represented one NV score by taking the average value of both eyes and was used in comparisons against each dosage group. Because the pups were randomly assigned and no difference was observed between oxygen-exposed control pups from all litters, the NV scores were combined for all treatment groups. P≦0.05 was considered statistically significant.

LYN = LYN (Homo sapiens, UniProt P07948); test: Kinase inhibition profile, non-related TK; type: biochemical; settings: ATP concentration of 1 nM
Chain of LYN (P07948 whole entry): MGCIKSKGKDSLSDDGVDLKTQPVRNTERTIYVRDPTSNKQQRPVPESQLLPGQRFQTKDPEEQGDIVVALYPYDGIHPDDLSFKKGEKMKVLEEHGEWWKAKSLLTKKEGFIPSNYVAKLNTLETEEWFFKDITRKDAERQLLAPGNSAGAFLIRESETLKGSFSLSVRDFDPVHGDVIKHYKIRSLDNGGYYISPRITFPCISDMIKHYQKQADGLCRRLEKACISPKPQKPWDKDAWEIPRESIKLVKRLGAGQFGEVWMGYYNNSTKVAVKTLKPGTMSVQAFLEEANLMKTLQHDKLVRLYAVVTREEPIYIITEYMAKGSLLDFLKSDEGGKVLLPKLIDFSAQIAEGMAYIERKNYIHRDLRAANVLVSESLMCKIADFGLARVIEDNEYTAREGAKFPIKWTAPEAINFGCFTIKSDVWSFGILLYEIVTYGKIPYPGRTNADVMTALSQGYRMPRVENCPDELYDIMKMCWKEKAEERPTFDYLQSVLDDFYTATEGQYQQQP

[2] = tested on: laser-induced choroidal neovascularization (CNV); test: Prevention of laser-induced CNV, intravitreal injection, mouse; type: in vivo, C57BL/6J mice; settings: for inhibition of CNV as compared to vehicle-injected eyes: 5 ul intravitreal immediately after laser, 14 days post-laser
Protocol: (§1) Methods. CNV was generated by laser-induced rupture of Bruch's membrane. Briefly, 4 to 5 week old male C57BL/6J mice were anesthetized using intraperitoneal administration of ketamine hydrochloride (100 mg/kg) and xylazine (5 mg/kg) and the pupils of both eyes dilated with topical ocular instillation of 1% tropicamide and 2.5% Mydfin®. One drop of topical cellulose (Gonioscopic®) was used to lubricate the cornea. A hand-held cover slip was applied to the cornea and used as a contact lens to aid visualization of the fundus. Three to four retinal burns were placed in randomly assigned eye (right or left eye for each mouse) using the Alcon 532 nm EyeLite laser with a slit 5 lamp delivery system. The laser burns were used to generate a rupture in Bruch's membrane, which was indicated ophthalmoscopically by the formation of a bubble under the retina. Only mice with laser burns that produced three bubbles per eye were included in the study. Bums were typically placed at the 3, 6, 9 or 12 o'clock positions in the posterior pole of the retina, avoiding the branch retinal arteries and veins.
(§2) Each mouse was randomly assigned into one of the following treatment groups: noninjected controls, sham-injected controls, vehicle-injected mice, or one of three RTKi-injected groups. Control mice received laser photocoagulation in both eyes, where one eye received a sham injection, i.e. a pars plana needle puncture. […] The intravitreal injection was performed immediately after laser photocoagulation. At 14 days post-laser, all mice were anesthetized and systemically perfused with fluorescein-labeled dextran. Eyes were then harvested and prepared as choroidal flat mounts with the RPE side oriented towards the observer. All choroidal flat mounts were examined using a fluorescent microscope. Digital images of the CNV were captured, where the CNV was identified as areas of hyperfluorescence within the pigmented background. Computerized image analysis was used to delineate and measure the two dimensional area of the hyperfluorescent CNV per lesion (um^2) for the outcome measurement. The median CNV area/burn per mouse per treatment group or the mean CNV area/burn per treatment group was used for statistical analysis depending on the normality of data distribution; P≦0.05 was considered significant.

[3] = Pilot intraocular safety study, single intravitreal injection, adult rat; type: in vivo; settings: single intravitreal injection of 0.1 and 1.0%, up to 1 month postinjection
Excerpt: Outcome measures were followed up to 1 month postinjection and involved clinical (fundus photography & indirect ophthalmoscopy), functional (electroretinography), and morphologic (histopathology) methods.

[4] = tested on: diabetes-induced retinal vascular permeability; test: Diabetes-induced retinal vascular permeability, oral gavage, STZ rat model
Protocol: METHODS: Diabetes was induced in male Long-Evans rats with 65 mg/kg streptozotocin (STZ) after an overnight fast. […] After 2 weeks, jugular vein catheters were implanted 1 day prior to experimentation for the infusion of indicator dye. Retinal vascular permeability, RVP, was measured using Evan's blue albumin permeation (45 mg/kg) after a 2 hour circulation period.

[5] = tested on: existing laser-induced choroidal neovascularization (CNV); test: Laser-induced CNV, oral gavage, regression paradigm, mouse; type: in vivo; settings: for Mean CNV / Median CNV: regression
Protocol: as §1, §2
(§3) METHODS: CNV was generated by laser-induced rupture of Bruch's membrane as described in Example 3 above. […] The mice received an oral gavage of 0, 1.5, 5, or 10 mg/kg twice per day and for 14 days post-laser. […] Oral gavage dosing was continued twice per day for 14 days post-laser. Several mice were Is euthanized at day 7 post-laser and used for controls. At 14 days post-laser, all mice were anesthetized and systemically perfused with fluorescein-labeled dextran. Eyes were then harvested and prepared as choroidal flat mounts as described in Example 3 above.

[6] = tested on: laser-induced choroidal neovascularization (CNV); test: Laser-induced CNV, oral gavage, prevention paradigm, mouse; type: in vivo; settings: for inhibition of CNV: prevention paradigm; for Mean CNV / Median CNV: prevention
Protocol: as §1, §2, §3

INSR = INSR (Homo sapiens, UniProt P06213); test: Kinase inhibition profile, non-related TK; type: biochemical; settings: ATP concentration of 1 nM
Chain of INSR (P06213 28-1382): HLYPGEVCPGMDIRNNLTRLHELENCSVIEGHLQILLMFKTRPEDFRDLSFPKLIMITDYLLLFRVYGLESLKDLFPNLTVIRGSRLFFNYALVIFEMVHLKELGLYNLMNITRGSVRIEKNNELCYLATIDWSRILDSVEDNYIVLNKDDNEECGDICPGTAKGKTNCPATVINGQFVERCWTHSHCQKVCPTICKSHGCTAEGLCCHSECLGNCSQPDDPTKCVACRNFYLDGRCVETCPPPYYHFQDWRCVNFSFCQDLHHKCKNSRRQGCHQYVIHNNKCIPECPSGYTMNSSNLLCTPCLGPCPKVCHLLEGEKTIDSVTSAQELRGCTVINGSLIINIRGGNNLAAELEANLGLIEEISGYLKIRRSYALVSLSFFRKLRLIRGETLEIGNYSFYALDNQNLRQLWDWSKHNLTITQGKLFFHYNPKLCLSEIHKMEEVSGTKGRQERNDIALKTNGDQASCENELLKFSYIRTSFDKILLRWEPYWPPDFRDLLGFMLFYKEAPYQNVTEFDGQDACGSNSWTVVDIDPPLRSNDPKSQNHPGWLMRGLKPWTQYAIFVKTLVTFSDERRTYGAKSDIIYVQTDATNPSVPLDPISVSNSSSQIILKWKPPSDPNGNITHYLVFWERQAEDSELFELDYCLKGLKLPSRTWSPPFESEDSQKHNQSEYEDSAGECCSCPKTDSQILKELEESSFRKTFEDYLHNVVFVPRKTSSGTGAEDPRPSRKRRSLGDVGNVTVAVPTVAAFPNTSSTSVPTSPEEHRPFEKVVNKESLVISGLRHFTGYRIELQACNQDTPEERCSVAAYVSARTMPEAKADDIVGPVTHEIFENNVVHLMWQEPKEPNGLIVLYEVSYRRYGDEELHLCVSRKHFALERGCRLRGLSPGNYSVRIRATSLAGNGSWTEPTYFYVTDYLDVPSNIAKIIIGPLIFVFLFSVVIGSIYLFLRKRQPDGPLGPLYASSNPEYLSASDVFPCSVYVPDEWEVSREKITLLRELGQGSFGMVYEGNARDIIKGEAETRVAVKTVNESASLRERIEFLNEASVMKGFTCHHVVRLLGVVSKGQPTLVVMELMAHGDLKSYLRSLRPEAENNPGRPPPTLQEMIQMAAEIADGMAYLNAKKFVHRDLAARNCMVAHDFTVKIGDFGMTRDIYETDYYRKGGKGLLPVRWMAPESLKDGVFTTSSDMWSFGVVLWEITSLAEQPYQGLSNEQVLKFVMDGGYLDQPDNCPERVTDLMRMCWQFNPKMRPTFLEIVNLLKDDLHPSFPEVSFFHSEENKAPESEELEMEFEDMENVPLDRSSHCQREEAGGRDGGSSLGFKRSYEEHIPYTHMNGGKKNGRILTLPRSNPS

Chain of FYN (P06241 whole entry): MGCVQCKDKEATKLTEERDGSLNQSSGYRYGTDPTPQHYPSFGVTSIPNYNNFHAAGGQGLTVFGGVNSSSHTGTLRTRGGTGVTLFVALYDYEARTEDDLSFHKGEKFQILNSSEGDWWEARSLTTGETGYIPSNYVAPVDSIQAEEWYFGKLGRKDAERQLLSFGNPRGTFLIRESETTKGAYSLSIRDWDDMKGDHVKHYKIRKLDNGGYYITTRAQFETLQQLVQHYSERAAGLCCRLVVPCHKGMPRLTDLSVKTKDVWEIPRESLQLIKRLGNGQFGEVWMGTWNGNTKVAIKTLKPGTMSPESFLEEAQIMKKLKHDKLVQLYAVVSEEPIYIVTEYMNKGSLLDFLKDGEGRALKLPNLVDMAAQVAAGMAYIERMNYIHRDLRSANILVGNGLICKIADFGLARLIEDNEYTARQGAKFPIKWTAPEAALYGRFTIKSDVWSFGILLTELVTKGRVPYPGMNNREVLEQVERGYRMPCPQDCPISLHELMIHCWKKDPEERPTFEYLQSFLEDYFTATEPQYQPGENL

With `Cc1ccc(F)c(NC(=O)Nc2ccc(-c3cccc4[nH]nc(N)c34)cc2)c1` [AL-39324, N-[4-[3-amino-1H-indazol-4-yl)phenyl]-N′-(2-fluoro-5-methylphenyl)urea] as the compound, how does the pIC50 (FYN) read?
The pIC50 was < 4.30.

And the “efficacy against preretinal NV” value ([1]; 0.1% treated eyes)?
The value was “Efficacy was not observed”.

What about the “% Inhibition (vs. vehicle-injected eye)” value ([1]; 0.1%) of the same compound?
The value was 37%.

What about the “Median NV” value ([1]; 0.1%) of the same compound?
Its value is 2.835.

And the “NV Range” value ([1]; 0.1%)?
The value was 1.1-5.3.

And the “% Inhibition (vs. vehicle-injected eye)” value ([1]; 0.3%)?
The value was 100%.

What about the “Median NV” value ([1]; 0.3%) of the same compound?
The value was 0.

And the “NV Range” value ([1]; 0.3%)?
Its value is 0-5.

What about the “% Inhibition (vs. vehicle-injected eye)” value ([1]; 0.6%) of the same compound?
The value was 100%.

What about the “Median NV” value ([1]; 0.6%) of the same compound?
The value was 0.

And the “NV Range” value ([1]; 0.6%)?
The value was 0-1.1.

And the “% Inhibition (vs. vehicle-injected eye)” value ([1]; 1%)?
The value was 100%.

And the “Median NV” value ([1]; 1%)?
Its value is 0.

And the “NV Range” value ([1]; 1%)?
The value was 0-2.

And the “inhibition of preretinal NV” value ([1]; between 0.3%-1% suspensions, intravitreal)?
Its value is 100%.

What about the pIC50 (LYN) of the same compound?
The pIC50 was < 4.70.

And the “CNV versus vehicle injected eyes” value ([2]; 0.3%, 5 ul intravitreal)?
The value was “marginal statistical difference”.

What about the “mean±s.d. CNV area/burn per mouse” value ([2]; 0.3%, 5 ul intravitreal) of the same compound?
Its value is 44283±28886 um^2.

And the “median CNV area/burn per mouse” value ([2]; 0.3%, 5 ul intravitreal)?
Its value is 38891 um^2.

And the “mean±s.d. CNV area/burn per mouse” value ([2]; 1%, 5 ul intravitreal)?
Its value is 21036±3100 um^2.

And the “median CNV area/burn per mouse” value ([2]; 1%, 5 ul intravitreal)?
The value was 21122 um^2.

What about the “inhibition of CNV as compared to vehicle-injected eyes” value ([2]; 1%) of the same compound?
Its value is 84.1%.

What about the “mean±s.d. CNV area/burn per mouse” value ([2]; 3%, 5 ul intravitreal) of the same compound?
The value was 27288±12109 um^2.

And the “median CNV area/burn per mouse” value ([2]; 3%, 5 ul intravitreal)?
Its value is 22665 um^2.

What about the “inhibition of CNV as compared to vehicle-injected eyes” value ([2]; 3%) of the same compound?
The value was 83.0%.

And the “adverse events (fundus, electroretinography, histopathology)” value [3]?
Its value is “No significant adverse events”.

And the “RVP” value ([4]; NDM treated at 5 mg/kg/d)?
Its value is “unchanged”.

What about the “Blood glucose levels and body weights, DM control vs DM treatment groups” value ([4]; oral, DM rats) of the same compound?
Its value is “not different”.

What about the “tolerability, systemic or ERG side effects” value ([4]; oral, NDM and DM groups) of the same compound?
The value was “well tolerated by both NDM and DM groups with no observed systemic or ERG side effects”.

And the “regression of existing CNV” value ([5]; 3 mg/kg/day oral from day 7 post-laser)?
The value was “did not show a significant regression of existing CNV”.

What about the “Mean CNV” value ([5]; 3 mg/kg/day oral) of the same compound?
Its value is 35442 μm^2.

What about the “Median CNV” value ([5]; 3 mg/kg/day oral) of the same compound?
Its value is 33967 μm^2.

And the “regression of existing CNV as compared to nontreated controls” value ([5]; 10 mg/kg/day oral from day 7 post-laser)?
The value was 41.8%.

And the “Mean CNV” value ([5]; 10 mg/kg/day oral)?
The value was 29773 μm^2.

What about the “Median CNV” value ([5]; 10 mg/kg/day oral) of the same compound?
Its value is 27389 μm^2.

And the “regression of existing CNV as compared to nontreated controls” value ([5]; 20 mg/kg/day oral from day 7 post-laser)?
The value was 68.0%.

What about the “Mean CNV” value ([5]; 20 mg/kg/day oral) of the same compound?
The value was 15706 μm^2.

What about the “Median CNV” value ([5]; 20 mg/kg/day oral) of the same compound?
Its value is 15036 μm^2.

What about the “inhibition of CNV” value ([6]; 3 mg/kg/day oral gavage) of the same compound?
The value was “no significant inhibition”.

And the “Mean CNV” value ([6]; 3 mg/kg/day oral)?
The value was 21670 μm^2.

What about the “Median CNV” value ([6]; 3 mg/kg/day oral) of the same compound?
Its value is 22317 μm^2.

And the “inhibition of CNV” value ([6]; 10 mg/kg/day oral gavage)?
Its value is 84.3%.

What about the “Mean CNV” value ([6]; 10 mg/kg/day oral) of the same compound?
Its value is 4046 μm^2.

And the “Median CNV” value ([6]; 10 mg/kg/day oral)?
Its value is 4137 μm^2.

And the “inhibition of CNV” value ([6]; 20 mg/kg/d oral gavage)?
Its value is “complete inhibition of CNV”.

What about the “Mean CNV” value ([6]; 20 mg/kg/day oral) of the same compound?
The value was 3266 μm^2.

What about the “Median CNV” value ([6]; 20 mg/kg/day oral) of the same compound?
The value was 0 μm^2.

What about the pIC50 (INSR) of the same compound?
Its pIC50 is < 4.30.

From US20060189608A1, “Methods for treating ocular angiogenesis, retinal edema, retinal ischemia, and diabetic retinopathy using selective RTK inhibitors” (Alcon, Inc., priority 2005, published 2006)
